# Laboratory results: patent publication US20230241188A1 (priority 2020, published 2023)
# System: spike mutant (ΔS) SARS-CoV-2 strain (EPI_ISL_578177)
# Format: cell-based
smiles,measurement,value
"CC(=O)N[C@@H](CS)C(=O)O [Acetylcysteine, acetylcysteine]","viral inhibition (CPE, optical and Neutral Red cell staining)",no viral inhibition
